Data set [1] is described as follows: Tissue biodistribution in tumor-bearing Balb/c mice. The data set is classed as in vivo. The note with it: female, Balb/c, mouse, thyroid, iv, 0.185 MBq, total radioactivity; 1 h post injection. The method, then: (§1) The structure-activity relationship was evaluated in vivo by performing a tissue biodistribution study in naive (FIG. 26) and tumor-bearing Balb/c mice (FIG. 23). […] The tumor/blood ratios for both [^125I]LS370 and [^125I]LS734 was 0.6±0.03. The tumor/muscle ratios were similar as well but higher than the tumor/blood ratios, [^125I]LS734 (2.2±0.1) and [^125I]LS370 (2.1±0.3). Thyroid uptake was 73±21 and 115±73 for [^125I]LS370 and [^125I]LS734, respectively.
(§2) All animal studies were conducted according to guidelines on the humane care and use of laboratory animals under protocols approved by the Animal Studies Committee at Washington University School of Medicine. For tissue biodistribution studies, syngeneic breast tumor models were prepared via bilateral orthotopic implantation of luciferase-transfected 4T1 mouse mammary carcinoma cells (4T1luc, 5×10^5 cells per tumor) in the mammary fat pads of 6-week-old, female Balb/c mice (NCI, Frederick, Md., USA). Studies were conducted when the tumors reached about 3 mm maximum diameter (−10 days). Healthy female Balb/c mice (n=4 per time point) were anesthetized with 1-2% vaporized isoflurane and injected via tail vein with 0.185 MBq of [^125I]LS370 or [^125I]LS734 (specific activities: [^125I]LS370-40×10^6 MBq/mmol; [^125I]LS734-10×10^6 MBq/mmol). At 1 h post injection, mice were killed. Organs of interest were removed and blotted dry. The radioactivity was measured in a gamma counter (Packard II gamma counter). Diluted standard doses (1:100) were prepared and counted along with the samples. Data points were corrected for radioactive decay. The percent injected dose per gram of tissue (% ID/g) was calculated.

A further data set deals with 4T1luc tumors. Described as above. The format is in vivo. The following applies: at 1 h after tail vein injection. As for the experimental part:
as §1, §2

For a further data set, the system named is MDA-MB-231 cells. In words: Cell uptake and efflux studies. The data set is classed as cell-based, human. The text has this: The goals of the cell-uptake studies were to (1) assess any changes in the structure-activity relationship resulting from the modular and responsive probe design and (2) evaluate the retention of the iodine containing hydrophobic peptide moiety in treated and untreated cells. Metastatic human breast MDA-MB-231 cells were used to evaluate whether the amino acid sequence modulation would enhance internalization, and how the probe would respond (intracellular) postchemotherapy. In the untreated cells, there was a higher uptake (P<0.001) of [^125I]LS734 (3.6±0.5) than [^125I]LS370 (0.3±0.3) at 2 h postincubation at 37° C. (FIG. 22A). […] The amount of iodinated fraction released by the untreated and treated cells at 3 h (post 2 h incubation and removal of excess activity) was used as a measure of the efflux activity.
MDA-MB-231 cells used for the uptake and efflux assay were grown on 24-well tissue culture plates until they were 80-90% confluent with […] cells per well. […] The experimental treatment group of cells was treated with 10 ng/ml of SN-38 (7-ethyl-10-hydroxy-camptothecin, Sigma Aldrich) for 24 h. Then, the SN-38 was removed, and the second chemotherapeutic drug, UCN-01 (Sigma Aldrich), was introduced at a concentration of […] in 0.1% BSA per well. At this point, respective radioactive solutions ([^125I]LS734 or [^125I]LS370, 0.02 μg per well; specific activities: [^125I]LS370-40×10^6 MBq/mmol; [^125I]LS734-10×10^6 MBq/mmol) were added to treated and control groups. The solutions were added drop-wise into the wells and gently mixed to ensure homogeneous distribution. The final volume per well was 240 μl, and the plates were incubated at 37° C. (5% CO2) for 2 h. After incubation, the supernatant (fraction 1) was collected, and the cells were washed twice with 250 μl of cold serum-free media. […] Fraction 2 represents the cell efflux, which is the amount of radioactivity released from cells after the 2 h uptake. […] The radioactivity in each fraction was measured in a well counter (Packard II gamma counter).

Non-standard residues stand in square brackets, D forms with d. Residues, ends and D or L forms follow the SMILES beside them. *: point of attachment. DOTA = O=C(O)CN1CCN(CC(=O)O)CCN(CC(=O)*)CCN(CC(=O)O)CC1; Tyr(3-I) = N[C@@H](Cc1ccc(O)c(I)c1)C(=O)O; Orn = NCCC[C@H](N)C(=O)O; Ahx = NCCCCCC(=O)O

The term tissue uptake denotes the share of the injected amount in each gram of the tissue.

Turning to `CC[C@H](C)[C@H](NC(=O)[C@H](C)NC(=O)[C@H](CC(C)C)NC(=O)[C@H](Cc1ccc(O)c(I)c1)NC(C)=O)C(=O)NCCCCCC(=O)N1CCC[C@H]1C(=O)N[C@@H](C)C(=O)N[C@@H](CC(=O)O)C(=O)N[C@@H](CCC(=O)O)C(=O)N[C@H](C(=O)N[C@@H](CC(=O)O)C(=O)NCC(=O)N[C@@H](CCCNC(=N)N)C(=O)N[C@@H](CCCNC(=N)N)C(=O)N[C@@H](CCCNC(=N)N)C(=O)N[C@@H](CCCN)C(=O)N[C@@H](CCCNC(=N)N)C(=O)N[C@@H](CCCNC(=N)N)C(=O)N[C@@H](CCCCN)C(=O)N[C@@H](CCCCN)C(=O)N[C@@H](CCCNC(=N)N)C(=O)N[C@@H](CCCCNC(=O)CN1CCN(CC(=O)O)CCN(CC(=O)O)CCN(CC(=O)O)CC1)C(N)=O)C(C)C` [[^125I]LS734] (Ac-[Tyr(3-I)]LAI[Ahx]PADEVDGRRR[Orn]RRKKRK(DOTA)-NH2), the tissue uptake at 1 h in data set [1] came out at 115 ± 73 %ID/g. For the same compound, in the data set on 4T1luc tumors, the blood circulation entry was “circulated longer in blood as compared to [^125I]LS370”. In addition, the “efflux activity: iodinated fraction released by untreated versus treated cells” value in the data set on MDA-MB-231 cells (at 3 h (post 2 h incubation and removal of excess activity), treatment SN-38 then UCN-01) is given as “higher amount of activity was released from untreated cells compared to treated cells”. The compound further showed a cell uptake in the data set on MDA-MB-231 cells (untreated MDA-MB-231 cells, 2 h postincubation at 37° C.) of 3.6±0.5.

These data come from patent US9974870B2, “Compositions and methods for treatment and imaging using nanoparticles” (Washington University, priority 2014, dated 2018).
